Measured values as given in patent US10167272B2, “Muscarinic agonists” (Heptares Therapeutics Limited, priority 2015, dated 2019).
Like-named read-outs stand apart in the source and are kept apart here.

What was measured:
[1] = biological target: T1, human muscarinic M1 receptor (Homo sapiens, UniProt P11229); assay: Alphascreen Surefire phospho-ERK1/2 functional assay, M1; assay type: cell-based; details: for EC50: read-out: pEC50 M1 (converted); for Emax: CHO
T1 sequence (P11229 1-460): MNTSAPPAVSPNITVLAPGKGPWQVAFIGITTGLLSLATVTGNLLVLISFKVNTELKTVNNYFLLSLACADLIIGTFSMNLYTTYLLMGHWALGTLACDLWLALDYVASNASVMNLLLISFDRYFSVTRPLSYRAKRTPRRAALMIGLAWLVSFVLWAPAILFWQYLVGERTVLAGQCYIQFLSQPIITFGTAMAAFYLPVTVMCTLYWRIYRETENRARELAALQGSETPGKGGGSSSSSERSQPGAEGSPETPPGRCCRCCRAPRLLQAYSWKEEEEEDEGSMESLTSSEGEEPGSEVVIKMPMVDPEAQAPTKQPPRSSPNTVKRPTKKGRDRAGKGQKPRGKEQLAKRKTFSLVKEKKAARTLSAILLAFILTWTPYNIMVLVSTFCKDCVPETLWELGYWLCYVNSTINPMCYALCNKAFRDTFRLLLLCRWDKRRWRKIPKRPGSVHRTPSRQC
Method: ERK1/2 phosphorylation is a downstream consequence of both Gq/11 and Gi/o protein coupled receptor activation, making it highly suitable for the assessment of M1, M3 (Gq/11 coupled) and M2, M4 receptors (Gi/o coupled), rather than using different assay formats for different receptor subtypes. CHO cells stably expressing the human muscarinic M1, M2, M3 or M4 receptor were plated (25K/well) onto 96-well tissue culture plates in MEM-alpha+10% dialysed FBS. Once adhered, cells were serum-starved overnight. Agonist stimulation was performed by the addition of 5 μL agonist to the cells for 5 min (37° C.). Media was removed and 50 μL of lysis buffer added. After 15 min, a 4 μL sample was transferred to 384-well plate and 7 μL of detection mixture added.

[2] = biological target: T2, human muscarinic M4 receptor (Homo sapiens, UniProt P08173); assay: Alphascreen Surefire phospho-ERK1/2 functional assay, M4; assay type: cell-based; details: for EC50: read-out: pEC50 M4 (converted); for Emax: CHO
T2 construct: expressed in transfected cells
T2 sequence (P08173 1-479): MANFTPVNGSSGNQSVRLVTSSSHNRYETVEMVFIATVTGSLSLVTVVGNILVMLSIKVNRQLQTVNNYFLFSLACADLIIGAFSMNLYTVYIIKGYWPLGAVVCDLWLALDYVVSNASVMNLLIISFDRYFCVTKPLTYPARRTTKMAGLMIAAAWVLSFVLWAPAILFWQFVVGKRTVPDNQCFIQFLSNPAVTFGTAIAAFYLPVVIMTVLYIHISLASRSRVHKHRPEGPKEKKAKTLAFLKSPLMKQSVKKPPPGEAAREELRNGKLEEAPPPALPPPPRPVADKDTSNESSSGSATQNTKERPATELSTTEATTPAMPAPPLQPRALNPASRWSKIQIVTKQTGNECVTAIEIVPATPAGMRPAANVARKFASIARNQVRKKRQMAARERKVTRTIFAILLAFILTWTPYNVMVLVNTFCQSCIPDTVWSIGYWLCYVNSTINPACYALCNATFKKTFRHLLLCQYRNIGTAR

[3] = CHO cells stably expressing human M1, phospho-ERK1/2
[4] = read-out: % Emax cf. ACh (M1), CHO cells stably expressing human M1, phospho-ERK1/2, relative to ACh
[5] = CHO cells stably expressing human M4, phospho-ERK1/2
[6] = read-out: % Emax cf. ACh (M4), CHO cells stably expressing human M4, phospho-ERK1/2, relative to ACh
[7] = CHO cells stably expressing human M1, phospho-ERK1/2, relative to ACh
[8] = CHO cells stably expressing human M4, phospho-ERK1/2, relative to ACh

CCOC(=O)N1CC2(CC(N3CCC(N(C(C)=O)C4CC4)CC3)C2)C1 [Example 1-1]
EC50 [1, 3]: 2.51 µM | Emax [1, 4]: 72% | EC50 [2, 5]: 0.316 µM | Emax [2, 6]: 77%

CCOC(=O)N1CCC2(CC(N3CCC(N(CC(C)(C)F)C(C)=O)CC3)C2)C1 (single isomer, unassigned) [2-26 Isomer 1]
EC50 [1, 3]: > 20 µM | % Emax cf. ACh (M1) [1, 7]: 23% | EC50 [2, 5]: 1 µM | % Emax cf. ACh (M4) [2, 8]: 52%

CCOC(=O)N1CCC2(CC(N3CCC(N(CC(F)(F)F)C(=O)OCCOC)CC3)C2)C1 (single isomer, unassigned) [2-43 Isomer 2]
EC50 [1, 3]: 2.51 µM | Emax [1, 4]: 35% | EC50 [2, 5]: 0.126 µM | Emax [2, 6]: 91%

CCOC(=O)N1CCC2(CC(N3CCC(N(CC4(O)CCC4)C(C)=O)CC3)C2)C1 (single isomer, unassigned) [2-31 Isomer 1]
EC50 [1, 3]: 3.98 µM | % Emax cf. ACh (M1) [1, 7]: 27% | EC50 [2, 5]: 0.2 µM | % Emax cf. ACh (M4) [2, 8]: 62%

CCOC(=O)N1CCC2(CC(N3CCC(N(CCO)C4CCC4)CC3)C2)C1 (single isomer, unassigned) [2-50 Isomer 2]
EC50 [1, 3]: > 20 µM | Emax [1, 4]: 17% | EC50 [2, 5]: 0.251 µM | Emax [2, 6]: 70%

CCOC(=O)N1CCC2(CC(N3CCC(N(Cc4cnco4)C(C)=O)CC3)C2)C1 (single isomer, unassigned) [2-36 Isomer 2]
EC50 [1, 3]: 2.51 µM | Emax [1, 4]: 45% | EC50 [2, 5]: 0.631 µM | Emax [2, 6]: 71%

CCOC(=O)N1CCC2(CC(N3CCC(CN(C(C)=O)C4CC4)CC3)C2)C1 (single isomer, unassigned) [2-12 Isomer 2]
pEC50 M1 [1, 3]: < 4.7 | % Emax cf. ACh (M1) [1, 7]: 6% | pEC50 M4 [2, 5]: 6.7 | % Emax cf. ACh (M4) [2, 8]: 41%

CCN(C(C)=O)C1CCN(C2CC3(CCN(C(=O)OC)C3)C2)CC1 (single isomer, unassigned) [2-17 Isomer 1]
EC50 [1, 3]: > 20 µM | % Emax cf. ACh (M1) [1, 7]: 27% | EC50 [2, 5]: 1.26 µM | Emax [2, 6]: 87%

CCOC(=O)N1CCC2(CC(N3CCC(N(CC(C)(F)F)C(C)=O)CC3)C2)C1 (single isomer, unassigned) [2-27 Isomer 2]
EC50 [1, 3]: 0.631 µM | Emax [1, 4]: 108% | EC50 [2, 5]: 0.0794 µM | Emax [2, 6]: 105%

CCOC(=O)N1CCC2(CC(N3CCC(N(CC4(C)COC4)C(C)=O)CC3)C2)C1 (single isomer, unassigned) [2-23 Isomer 2]
EC50 [1, 3]: 1.26 µM | Emax [1, 4]: 43% | EC50 [2, 5]: 0.631 µM | Emax [2, 6]: 65%

CCOC(=O)N1CCC2(CC(N3CCC(N(CC4(OC)CCC4)C(C)=O)CC3)C2)C1 (single isomer, unassigned) [2-30 Isomer 1]
EC50 [1, 3]: 1.26 µM | % Emax cf. ACh (M1) [1, 7]: 33% | EC50 [2, 5]: 0.126 µM | % Emax cf. ACh (M4) [2, 8]: 59%

CCOC(=O)N1CCC2(CC(N3CCC(N(CC)C(=O)N(C)C)CC3)C2)C1 (single isomer, unassigned) [Example 2-44 Isomer 2]
EC50 [1, 3]: 2.51 µM | Emax [1, 4]: 55% | EC50 [2, 5]: 0.398 µM | Emax [2, 6]: 80%

CCOC(=O)N1CCC2(CC(N3CCC(N(CCO)C4CC4)CC3)C2)C1 (single isomer, unassigned) [2-49 Isomer 2]
EC50 [1, 3]: > 20 µM | Emax [1, 4]: 8% | EC50 [2, 5]: 1.26 µM | Emax [2, 6]: 78%

CCOC(=O)N1CCC2(CC(N3CCC(N(CC(C)(C)F)C(C)=O)CC3)C2)C1 (single isomer, unassigned) [2-26 Isomer 2]
EC50 [1, 3]: 0.398 µM | % Emax cf. ACh (M1) [1, 7]: 109% | EC50 [2, 5]: 0.0631 µM | % Emax cf. ACh (M4) [2, 8]: 114%

CCOC(=O)N1CCC2(CC(N3CCC(N(CC4CC4)C(C)=O)CC3)C2)C1 (single isomer, unassigned) [2-20 Isomer 1]
EC50 [1, 3]: > 20 µM | % Emax cf. ACh (M1) [1, 7]: 17% | EC50 [2, 5]: 1 µM | % Emax cf. ACh (M4) [2, 8]: 36%

CCOC(=O)N1CCC2(CC(N3CCC(N(CC)CCS(C)(=O)=O)CC3)C2)C1 (single isomer, unassigned) [2-56 Isomer 2]
EC50 [1, 3]: > 20 µM | Emax [1, 4]: 7% | EC50 [2, 5]: 1.26 µM | Emax [2, 6]: 41%

CCCN(C(C)=O)C1CCN(C2CC3(CCN(C(=O)OCC)C3)C2)CC1 (single isomer, unassigned) [2-18 Isomer 2]
EC50 [1, 3]: 2 µM | Emax [1, 4]: 89% | EC50 [2, 5]: 0.2 µM | Emax [2, 6]: 107%

CCOC(=O)N1CCC2(CC(N3CCC(N(CC(C)C)C(C)=O)CC3)C2)C1 (single isomer, unassigned) [2-19 Isomer 1]
EC50 [1, 3]: 1.26 µM | % Emax cf. ACh (M1) [1, 7]: 32% | EC50 [2, 5]: 0.251 µM | % Emax cf. ACh (M4) [2, 8]: 62%

CCOC(=O)N1CCC2(CC(N3CCC(N(CC(F)(F)F)C(C)=O)CC3)C2)C1 (single isomer, unassigned) [2-25 Isomer 2]
EC50 [1, 3]: 3.98 µM | Emax [1, 4]: 125% | EC50 [2, 5]: 0.1 µM | Emax [2, 6]: 101%

CCOC(=O)N1CCC2(CC(N3CCC(N(CC4(C)CCC4)C(C)=O)CC3)C2)C1 (single isomer, unassigned) [2-21 Isomer 1]
EC50 [1, 3]: 15.8 µM | % Emax cf. ACh (M1) [1, 7]: 51% | EC50 [2, 5]: 0.316 µM

CCOC(=O)N1CCC2(CC(N3CCC(N(CCO)c4ccccc4)CC3)C2)C1 (single isomer, unassigned) [2-58 Isomer 2]
EC50 [1, 3]: 1.26 µM | Emax ([1]; read-out: % Emax cf. ACh (M1)): 63% | EC50 [2, 5]: 0.251 µM | Emax ([2]; read-out: % Emax cf. ACh (M4)): 74%

CCOC(=O)N1CCC2(CC(N3CCC(N(CC(C)(C)OC)C(C)=O)CC3)C2)C1 (single isomer, unassigned) [2-29 Isomer 1]
EC50 [1, 3]: > 20 µM | % Emax cf. ACh (M1) [1, 7]: 17% | EC50 [2, 5]: 1.26 µM | % Emax cf. ACh (M4) [2, 8]: 56%

CCOC(=O)N1CCC2(CC(N3CCC(N(C(C)=O)C4CC(F)(F)C4)CC3)C2)C1 (single isomer, unassigned) [2-28 Isomer 2]
EC50 [1, 3]: 0.158 µM | Emax [1, 4]: 124% | EC50 [2, 5]: 0.251 µM | Emax [2, 6]: 80%

CCOC(=O)N1CCC2(CC(N3CCC(N(CC)C4COC4)CC3)C2)C1 (single isomer, unassigned) [2-53 Isomer 2]
EC50 [1, 3]: > 20 µM | Emax [1, 4]: 42% | EC50 [2, 5]: 0.251 µM | Emax [2, 6]: 62%

CCOC(=O)N1CCC2(CC(N3CCC(N(C(C)=O)C4(C)CCC4)CC3)C2)C1 (single isomer, unassigned) [2-22 Isomer 2]
EC50 [1, 3]: 0.316 µM | Emax [1, 4]: 132% | EC50 [2, 5]: 0.0794 µM | Emax [2, 6]: 139%

CCOC(=O)N1CCC2(CC(N3CCC(N(C(C)=O)C4CC4)CC3)C2)C1 (single isomer, unassigned) [2-3 Isomer 1]
EC50 [1, 3]: 2 µM | Emax [1, 4]: 78% | EC50 [2, 5]: > 20 µM | % Emax cf. ACh (M4) [2, 8]: 13%
